Like-named read-outs stand apart in the source and are kept apart here.
Legend:
[1] = Toxicity of chemotherapy, radioimmunotherapy and combination therapy by weight loss (FIG. 8); set-up: species or system Swiss nude mice; conditions: Swiss nude, mouse, in vivo, intravenous; together with Leucovorin at 120 mg/kg
[2] = cited from earlier work
[3] = system: Colau.C35 tumor cells; assay: Combination radioimmunotherapy and chemotherapy, second experiment (FIG. 6, Table 6); assay type: in vivo, Swiss nude mice
Description: Swiss nude mice were grafted with Colau.C35 cells on day 0. Chemotherapy: Cisplatin administered at 2 mg/kg i.v. on days 15 & 18; 5FU/LV administered at 180/120 mg/kg i.v. on day 18.
Cispaltin was administered on days 15 and 18 following tumor graft. […] Tumor growth was followed for up to 10 weeks.

[4] = system: 21MT1 tumor cells; assay: C35 surface staining following drug induced apoptosis (flow cytometry); assay type: cell-based
Description: 24 hours following treatment with 0.5 uM Taxol™, 21MT1 tumor cells were stained with annexin V-FITC, propidium iodide, and with either 100 ng anti-C35 antibody 1F2 (dark line) or isotype control (grey fill) antibody. Both antibodies were directly conjugated to Alexa-647. Histograms were gated on the cells undergoing apoptosis (annexinV positive/PI negative). Antibodies were pre-incubated with PAB buffer (FIG. 3A), 100-fold molar excess recombinant C35 protein (FIG. 3B), or 100-fold molar excess β-galactosidase protein (FIG. 3C).
A line of continuously growing breast tumor cells that express the C35 tumor antigen was either treated with 6 ug/ml mitomycin C or left untreated. After continued in vitro culture for 48 hours to allow apoptosis to develop, cells were harvested, washed and stained with 50 ng of 1F2 monoclonal anti-C35 antibody or a mouse IgG antibody control each conjugated to the fluorescent dye Alexa 647. Following 50 minutes incubation at 25° C., cells were stained with Annexin V and propidium iodide (PI) using a standard commercial kit (Pharmingen). Cells were analyzed for staining with Annexin V, propidium iodide and Alexa 647 by flow cytometry employing standard protocols.

[5] = system: rabbit anti-human C35 polyclonal antibody; assay: ELISA of rabbit C35 immune serum on plates coated with C35 15-mer peptides; assay type: binding
[6] = literature values, schedule as in table
[7] = non-toxic dose at indicated schedule (dose of column Dose + RIT)
[8] = 14 μg/ml peptide coated plates, 100 ng/ml primary antibody
[9] = 40 μg/ml peptide coated plates, 1 μg/ml primary antibody

Row | Molecule | Absorbance @ 450-570 nm [5, 8] | Absorbance @ 450-570 nm [5, 9] | also measured
1 | O=c1[nH]cc(F)c(=O)[nH]1 [5-FluoroUracil] | – | – | MTD [1]: 180 mg/kg
2 | N.N.[Cl][Pt][Cl] [Cisplatin] | – | – | Maximum Tolerated Dose [2, 6]: 4 mg/kg; TDD = Tumor doubling delay ([3]; T − C/tumor volume doubling time of untreated): 0.66; LCK = Log Cell Kill ([3]; TDD/3.32): 0.20; Colau.C35 tumor growth (FIG. 6) ([3]; cisplatin 2 mg/kg days 15, 18, 5FU/LV 180/120 mg/kg day 18, 300 μCi ^131I-1B3 day 21): some inhibition; T − C: difference in time for treated and control tumors to reach a given volume ([3]; volume 1200 mm^3): 5 days
3 | O=P1(N(CCCl)CCCl)NCCCO1 (centres unmarked) [Cyclophosphamide] | – | – | Maximum Tolerated Dose [2, 7]: No toxicity ^2
4 | Nc1ccn([C@@H]2O[C@H](CO)[C@@H](O)C2(F)F)c(=O)n1 [Gemcitabine] | – | – | Maximum Tolerated Dose [2, 7]: No toxicity ^5
5 | O=C1[O][Pt]2([NH][C@@H]3CCCC[C@H]3[NH]2)[O]C1=O [Oxaliplatin] | – | – | Maximum Tolerated Dose [2, 6]: 5 mg/kg
6 | CC(=O)O[C@H]1C(=O)[C@@]2(C)[C@H]([C@H](OC(=O)c3ccccc3)[C@]3(O)C[C@H](OC(=O)[C@H](O)[C@@H](NC(=O)c4ccccc4)c4ccccc4)C(C)=C1C3(C)C)[C@]1(OC(C)=O)CO[C@@H]1C[C@@H]2O [Taxol, paclitaxel] | – | – | Maximum Tolerated Dose [2, 7]: No toxicity ^2; induction of apoptosis and C35 surface exposure ([4]; 0.5 uM, 24 hours, stained with 1F2): induces apoptosis, resulting in exposure of C35 on the surface of apoptotic tumor cells
7 | CO[C@@]12[C@H](COC(N)=O)C3=C(C(=O)C(C)=C(N)C3=O)N1C[C@@H]1N[C@@H]12 [mitomycin C] | – | – | C35 surface staining of treated cells undergoing apoptosis ([4]; 6 ug/ml, 48 hours, PI negative, Annexin V positive cells): clearly differentially stained with anti-C35 antibodies as compared to isotype control antibody
8 | AFEIEINGQLVFSKL [P64] | 0.055 | 0.423 | –
9 | AIRRASNGETLEKIT [P92] | 0.04 | 0.267 | –
10 | APPPEEVEPGSGVRI [P11] | 1.526 | 3.317 | –
11 | DLIEAIRRASNGETL [P88] | 0.025 | 0.135 | –
12 | EAIRRASNGETLEKI [P91] | 0.023 | 0.144 | –
13 | EEVEPGSGVRIVVEY [P15] | 0.039 | 0.334 | –
14 | EIEINGQLVFSKLEN [P66] | 0.028 | 0.182 | –
15 | EKDLIEAIRRASNGE [P86] | 0.023 | 0.166 | –
16 | EPGQTSVAPPPEEVE [P4] | 1.254 | 3.282 | –
17 | ETLEKITNSRPPAVI [P100] | 0.017 | 0.124 | –
18 | EVEPGSGVRIVVEYA [P16] | 0.027 | 0.172 | –
19 | FEIEINGQLVFSKLE [P65] | 0.043 | 0.269 | –
20 | FPYEKDLIEAIRRAS [P83] | 0.025 | 0.19 | –
21 | GAFEIEINGQLVFSK [P63] | 0.079 | 0.557 | –
22 | GEPGQTSVAPPPEEV [P3] | 1.458 | 3.349 | –
23 | GETLEKITNSRPPAV [P99] | 0.026 | 0.18 | –
24 | GFPYEKDLIEAIRRA [P82] | 0.02 | 0.18 | –

Row | Molecule | Absorbance @ 450-570 nm [5, 8] | Absorbance @ 450-570 nm [5, 9] | also measured
25 | GGFPYEKDLIEAIRR [P81] | 0.032 | 0.204 | –
26 | GQTSVAPPPEEVEPG [P6] | 2.483 | 3.381 | –
27 | IEAIRRASNGETLEK [P90] | 0.04 | 0.403 | –
28 | IRRASNGETLEKITN [P93] | 0.051 | 0.389 | –
29 | LIEAIRRASNGETLE [P89] | 0.015 | 0.053 | –
30 | MSGEPGQTSVAPPPE [P1] | 0.257 | – | –
31 | NGETLEKITNSRPPA [P98] | 0.035 | 0.213 | –
32 | NGGFPYEKDLIEAIR [P80] | 0.018 | 0.1 | –
33 | PEEVEPGSGVRIVVE [P14] | 0.127 | 0.972 | –
34 | PGQTSVAPPPEEVEP [P5] | 2.719 | 3.383 | –
35 | PPEEVEPGSGVRIVV [P13] | 0.385 | 2.522 | –
36 | PPPEEVEPGSGVRIV [P12] | 0.836 | – | –
37 | PYEKDLIEAIRRASN [P84] | 0.037 | 0.391 | –
38 | QTSVAPPPEEVEPGS [P7] | 2.635 | 3.388 | –
39 | RASNGETLEKITNSR [P95] | 0.062 | 0.462 | –
40 | RRASNGETLEKITNS [P94] | 0.061 | 0.526 | –
41 | SGEPGQTSVAPPPEE [P2] | 0.108 | 1.227 | –
42 | SNGETLEKITNSRPP [P97] | 0.046 | 0.373 | –
43 | SVAPPPEEVEPGSGV [P9] | 2.31 | 3.367 | –
44 | TGAFEIEINGQLVFS [P62] | 0.023 | 0.107 | –
45 | TLEKITNSRPPAVIL [P101] | 0.472 | 2.519 | –
46 | TSVAPPPEEVEPGSG [P8] | 0.059 | 0.394 | –
47 | VAPPPEEVEPGSGVR [P10] | 1.736 | 3.407 | –
48 | YEKDLIEAIRRASNG [P85] | 0.024 | 0.179 | –

Source: patent publication US20080305111A1, “Anti-C35 antibodies for treating cancer” (VACCINEX, INC., priority 2006, published 2008)
